In patent US20150344466A1 (SUMITOMO CHEMICAL COMPANY, LIMITED, priority 2013, published 2015):

Tests used:
Blattella germanica = experiment: Knockdown spray test on Blattella germanica, 0.1% w/v oil formulation (Test Example 2); assay type: in vivo; conditions: topical, 0.25 h, active ingredient 0.1% w/v, 1.5 ml sprayed, within 15 minutes, read-out: knockdown rate of the test insects within 15 minutes
Description: Ten Blattella germanica (5 males and 5 females) were released in a test container (8.75 cm in diameter, 7.5 cm in height, and the bottom made of 16 mesh metallic wire) with the inner wall on which butter was applied, and the container was placed on the bottom of a test chamber (bottom: 46 cm×46 cm, height: 70 cm). From a height of 60 cm above the upper surface of the container, 1.5 ml of the test drug solution was sprayed using a spray gun (a spraying pressure of 0.42 kg/cm^2). Thirty seconds after spraying, the container was taken out from the test chamber, and after 2 minutes, 5 minutes and 15 minutes, the number of knocked-down insects was counted to obtain a knockdown rate. The knockdown rate was calculated by the following equation.
(§1) Knockdown Rate (%)=(Number of Knocked-down Insects/Number of Tested Insects)×100

Culex pipiens pallens = experiment: Knockdown spray test on adult Culex pipiens pallens (Test Example 4); assay type: in vivo; conditions: topical, 0.25 h, active ingredient 0.1% w/v, 0.5 ml sprayed, within 15 minutes, read-out: knockdown rate of the test insects within 15 minutes
Description: Ten adult Culex pipiens pallens were released in a polyethylene cup (bottom diameter: 10.6 cm), and the cup was covered with a 16-mesh nylon gauze. The polyethylene cup was placed on the bottom of a test chamber (bottom: 46 cm×46 cm, height: 70 cm). From a height of 30 cm above the upper surface of the polyethylene cup, 0.5 ml of the test drug solution was sprayed using a spray gun (a spraying pressure of 0.4 kg/cm^2). Immediately after spraying, the cup was taken out from the test chamber, and after 2 minutes, 5 minutes and 15 minutes, the number of knocked-down insects was counted to obtain a knockdown rate. The knockdown rate was calculated by the following equation.
as §1

| SMILES | pest or weed control at 0.1 % strength (Blattella germanica) [%] | pest or weed control at 0.1 % strength (Culex pipiens pallens) [%] |
| --- | --- | --- |
| O=C(NCC1CCOC1)c1cc(COc2cccc(Cl)c2)on1 (stereo not shown) [(178), N-(tetrahydrofuran-3-ylmethyl)-5-(3-chlorophenoxymethyl)isoxazole-3-carboxamide] | ≥ 80 | ≥ 80 |
| O=C(NCC1CCOC1)c1cc(COCc2cc3ccccc3cc2F)on1 (stereo not shown) [(257), N-(tetrahydrofuran-3-ylmethyl)-5-(3-fluoro-2-naphthylmethoxymethyl)isoxazole-3-carboxamide] | ≥ 80 | ≥ 80 |
| Cc1cccc(Cc2cc(C(=O)NCC3CCOC3)no2)c1 (stereo not shown) [(328), N-(tetrahydrofuran-3-ylmethyl)-5-(3-methylbenzyl)isoxazole-3-carboxamide] | ≥ 80 | ≥ 80 |
| Cc1ccc(Cc2cc(C(=O)NCC3CCOC3)no2)cc1 (stereo not shown) [(329), N-(tetrahydrofuran-3-ylmethyl)-5-(4-methylbenzyl)isoxazole-3-carboxamide] | ≥ 80 | ≥ 80 |
| O=C(NCC1CCOC1)c1cc(COCc2ccc(F)cc2)on1 (stereo not shown) [(89), N-(tetrahydrofuran-3-ylmethyl)-5-(4-fluorobenzyloxymethyl)isoxazole-3-carboxamide] | ≥ 80 | ≥ 80 |
| O=C(NCC1CCOC1)c1cc(COc2ccc(Br)cc2)on1 (stereo not shown) [(186), N-(tetrahydrofuran-3-ylmethyl)-5-(4-bromophenoxymethyl)isoxazole-3-carboxamide] | ≥ 80 | ≥ 80 |
| O=C(NCC1CCOC1)c1noc(COCc2ccc3ccccc3c2)c1F (stereo not shown) [(255), N-(tetrahydrofuran-3-ylmethyl)-5-(2-naphthylmethoxymethyl)-4-fluoroisoxazole-3-carboxamide] | ≥ 80 | ≥ 80 |
| Cc1c(C(=O)NCC2CCOC2)noc1CCCc1ccccc1 (stereo not shown) [(221), N-(tetrahydrofuran-3-ylmethyl)-4-methyl-5-(3-phenylpropyl)isoxazole-3-carboxamide] | ≥ 80 | ≥ 80 |
| O=C(NCC1CCOC1)c1noc(COCc2ccccc2)c1CO (stereo not shown) [(174), N-(tetrahydrofuran-3-ylmethyl)-(5-benzyloxymethyl-4-hydroxymethyl)isoxazole-3-carboxamide] | ≥ 80 | ≥ 80 |
| O=C(NCC1CCOCC1)c1cc(COc2ccccc2Cl)on1 [(177), N-(tetrahydropyran-4-ylmethyl)-5-(2-chlorophenoxymethyl)isoxazole-3-carboxamide] | ≥ 80 | ≥ 80 |
| Cc1ccccc1COCc1cc(C(=O)NCC2CCOC2)no1 (stereo not shown) [(226)] | ≥ 80 | ≥ 80 |
| CC(O)c1c(C(=O)NCC2CCOC2)noc1COCc1ccc2ccccc2c1 (stereo not shown) [(210), N-(tetrahydrofuran-3-ylmethyl)-1-hydroxyethyl-5-(2-naphthylmethoxymethyl)isoxazole-3-carboxamide] | ≥ 80 | ≥ 80 |
| O=C(NCC1CCOCC1)c1cc(COCCCc2ccccc2)on1 [(134), N-(tetrahydropyran-4-ylmethyl)-5-(3-phenylpropoxymethyl)isoxazole-3-carboxamide] | ≥ 80 | ≥ 80 |
| O=C(NCC1CCOCC1)c1cc(COCc2ccc(Cl)s2)on1 [(110), N-(tetrahydropyran-4-ylmethyl)-5-(2-chlorothiophen-5-ylmethoxymethyl)isoxazole-3-carboxamide] | ≥ 80 | ≥ 80 |
| O=C(NCC1CCOC1)c1cc(CCCc2ccc3ccccc3c2)on1 (stereo not shown) [(228), N-(tetrahydrofuran-3-ylmethyl)-5-[3-(2-naphthyl)propyl]isoxazole-3-carboxamide] | ≥ 80 | ≥ 80 |
| CSc1cccc(COCc2cc(C(=O)NCC3CCOC3)no2)c1 (stereo not shown) [(88), N-(tetrahydrofuran-3-ylmethyl)-5-(3-methylthiobenzyloxymethyl)isoxazole-3-carboxamide] | ≥ 80 | ≥ 80 |
| O=C(NCC1CCOC1)c1cc(COCc2ccc(F)c(Cl)c2)on1 (stereo not shown) [(261), N-(tetrahydrofuran-3-ylmethyl)-5-(3-chloro-4-fluorobenzyloxymethyl)isoxazole-3-carboxamide] | ≥ 80 | ≥ 80 |
| O=C(NCC1CCOC1)c1cc(COCc2cc3ccccc3o2)on1 (stereo not shown) [(111)] | ≥ 80 | ≥ 80 |

| SMILES | pest or weed control at 0.1 % strength (Blattella germanica) [%] | pest or weed control at 0.1 % strength (Culex pipiens pallens) [%] |
| --- | --- | --- |
| O=C(NCC1CCOCC1)c1cc(COCc2cccc(F)c2)on1 [(75), N-(tetrahydropyran-4-ylmethyl)-5-(3-fluorobenzyloxymethyl)isoxazole-3-carboxamide] | ≥ 80 | ≥ 80 |
| O=C(NCC1CCOC1)c1cc(COCCCc2ccccc2)on1 (stereo not shown) [(133), N-(tetrahydrofuran-3-ylmethyl)-5-(3-phenylpropoxymethyl)isoxazole-3-carboxamide] | ≥ 80 | ≥ 80 |
| CC(O)c1c(C(=O)NCC2CCOC2)noc1COCc1ccccc1 (stereo not shown) [(175), N-(tetrahydrofuran-3-ylmethyl)-[5-benzyloxymethyl-4-(1-hydroxyethyl)]isoxazole-3-carboxamide] | ≥ 80 | ≥ 80 |
| COc1cccc(Cc2cc(C(=O)NCC3CCOC3)no2)c1 (stereo not shown) [(312), N-(tetrahydrofuran-3-ylmethyl)-5-(3-methoxybenzyl)isoxazole-3-carboxamide] | ≥ 80 | ≥ 80 |
| O=C(NCC1CCOC1)c1cc(COCc2ccc(-c3ccccc3)o2)on1 (stereo not shown) [(124), N-(tetrahydrofuran-3-ylmethyl)-5-(5-phenylfurfuryloxymethyl)isoxazole-3-carboxamide] | ≥ 80 | ≥ 80 |
| O=C(NCC1CCOC1)c1cc(CSCc2ccc3ccccc3c2)on1 (stereo not shown) [(253)] | ≥ 80 | ≥ 80 |
| O=C(NCC1CCOC1)c1cc(COc2ccc3c(c2)CCCC3)on1 (stereo not shown) [(239), N-(tetrahydrofuran-3-ylmethyl)-5-(5,6,7,8-tetrahydronaphthalen-2-yl)oxymethylisoxazole-3-carboxamide] | ≥ 80 | ≥ 80 |
| O=C(NCC1CCOC1)c1noc(COCc2ccccc2F)c1F (stereo not shown) [(298), N-(tetrahydrofuran-3-ylmethyl)-5-(2-fluorobenzyloxymethyl)-4-fluoroisoxazole-3-carboxamide] | ≥ 80 | ≥ 80 |
| CC(F)c1c(C(=O)NCC2CCOC2)noc1COCc1ccccc1 (stereo not shown) [(172), N-(tetrahydrofuran-3-ylmethyl)-[5-benzyloxymethyl-4-(1-fluoroethyl)]isoxazole-3-carboxamide] | ≥ 80 | ≥ 80 |
| O=C(NCC1CCOC1)c1cc(COCc2cccc(F)c2)on1 (stereo not shown) [(74)] | ≥ 80 | ≥ 80 |
| O=C(NCC1CCOC1)c1cc(COCc2ccc(Cl)s2)on1 (stereo not shown) [(109), N-(tetrahydrofuran-3-ylmethyl)-5-(2-chlorothiophen-5-ylmethoxymethyl)isoxazole-3-carboxamide] | ≥ 80 | ≥ 80 |
| COc1cccc(COCc2cc(C(=O)NCC3CCOCC3)no2)c1 [(85), N-(tetrahydropyran-4-ylmethyl)-5-(3-methoxybenzyloxymethyl) isoxazole-3-carboxamide] | ≥ 80 | ≥ 80 |
| O=C(NCC1CCOC1)c1cc(COCc2ccccc2Br)on1 (stereo not shown) [(265), N-(tetrahydrofuran-3-ylmethyl)-5-(2-bromobenzyloxymethyl)isoxazole-3-carboxamide] | ≥ 80 | ≥ 80 |
| O=C(NCC1CCOC1)c1cc(COCc2ccc3sccc3c2)on1 (stereo not shown) [(336), N-(tetrahydrofuran-3-ylmethyl)-5-[(5-benzothiophenyl)methoxymethyl]isoxazole-3-carboxamide] | ≥ 80 | ≥ 80 |
| O=C(NCC1CCOC1)c1cc(COCc2ccc(Cl)c(F)c2)on1 (stereo not shown) [(276), N-(tetrahydrofuran-3-ylmethyl)-5-(4-chloro-3-fluorobenzyloxymethyl)isoxazole-3-carboxamide] | ≥ 80 | ≥ 80 |
| COc1ccccc1Cc1cc(C(=O)NCC2CCOC2)no1 (stereo not shown) [(317), N-(tetrahydrofuran-3-ylmethyl)-5-(2-methoxybenzyl)isoxazole-3-carboxamide] | ≥ 80 | ≥ 80 |
| O=C(NCC1CCOC1)c1cc(COc2ccc(F)cc2)on1 (stereo not shown) [(184)] | ≥ 80 | ≥ 80 |
